Assay results as given in article PMC10381533, “Inhibitory Effects of the Fungal Pigment Rubiginosin C on Hyphal and Biofilm Formation in Candida albicans and Candida auris” (Journal of Fungi, 2023).
Values joined by “and” are separate entries in the source; they are usually repeats but may differ in a detail not shown here. Identical values can stand only once.

Tests used:
Format in all cases: cell-based
[1] = system: Pseudomonas aeruginosa (PA 14) DSM 19882 biofilm; assay: Crystal violet biofilm inhibition assay, P. aeruginosa; conditions: Pseudomonas aeruginosa, DSM19882, assay conducted once, read-out: inhibition of P. aeruginosa biofilm formation compared to solvent control (= 0%)
Protocol: Selected azaphilones Rub C and W, Rut A and B were tested against the formation of biofilms in Pseudomonas aeruginosa (PA 14) DSM 19882. Bacterial strain was precultured in 25 mL LB medium (Luria - Bertani Broth) with a 250 mL flask at 37 °C with shaking 100 rpm overnight. The turbidity of the baterial solution was measured and diluted to match the turbidity of a 0.1 McFarland standard in M63 medium, which is supplemented with magnesium sulfate, glucose and casamino acids as previously described. The compounds were added into 150 μL bacterial solution at the concentration (250–2 μg/mL) then the solution was added in U-bottom 96 well plate (Falcon ref.no 351177, Thermo Fisher Scientific). The plates were incubated at 37 °C at 150 rpm for 24 h and biofilms were established at the air liquid interface. The plates were rinsed once by using PBS buffer, the biofilms were stained by 150 μL 0.1% CV at room temperature for 15 min and then rinsed two times by using PBS buffer. The absorbance was quantified with the plate reader (Synergy 2, BioTek) at 550 nm using ethanol (95%). Methanol (2.5 %) and myxovalargin A (250 –2 μg/mL) were used as negative control and positive control, respectively. The assay was conducted for […]
(§1) Table S2: Selected azaphilones were tested against the formation of biofilm of S. aureus, P. aeruginosa as well as C. auris and dispersal effect on preformed biofilm of S. aureus compared to solvent control (= 0%), respectively. SDs are shown as ±SD.
(§2) Compounds Strains Concentrations [µg/mL] […]

[2] = system: Staphylococcus aureus (DSM 1104) biofilm; assay: Crystal violet biofilm inhibition assay, S. aureus; conditions: for inhibitory effects against the biofilm formation of S. aureus: CV assay; for inhibition at 2 µg/mL / inhibition at 3.9 µg/mL / inhibition at 7.8 µg/mL / inhibition at 15.6 µg/mL / inhibition at 31.3 µg/mL / inhibition at 62.5 µg/mL / inhibition at 125 µg/mL / inhibition at 250 µg/mL: Staphylococcus aureus, DSM1104, read-out: inhibition of S. aureus biofilm formation compared to solvent control (= 0%)
Protocol: Selected azaphilones Rub C and W, Rut A and B were tested against the formation of biofilms in Staphylococcus aureus (DSM 1104). S. aureus DSM 1104 from a −20 °C stock was precultured in 25 mL CASO (casein-peptone soymeal-peptone) medium in a 250 mL flask at 37 °C with 100 rpm for 20 h. The OD600 of the culture solution was adjusted to 0.001 McFarland standard and incubated in 96-well microtiter plates (TPP tissue culture ref.no 92196, Switzerland) for 18 h at 37 °C with 150 μL of serially diluted test […]
compounds (250–2 μg/mL) in CASO with 4% glucose broth. The inhibition of biofilm formation was evaluated by staining with 150 μL of 0.1% crystal violet (CV; Thermo Fisher) following previously established protocols. In the next step, the supernatant of the 96-well plate was discarded and the wells were rinsed once with PBS buffer. The remaining biofilms were stained at room temperature for 15 min, rinsed three times with PBS buffer, and finally dissolved in 150 μL ethanol (95%). The absorbance of the resulting solution at 530 nm was quantified using a plate reader (Synergy 2, BioTek). Methanol (2.5%) and microporenic acid A (MAA) (250–2 μg/mL) were used as negative and positive controls. Standard deviations (SD) of two repeats with duplicates were 10% or less. […]
μg/mL) were used as negative control and positive control, respectively. The assay was conducted for […]
as §1, §2

[3] = system: human endocervical adenocarcinoma KB-3-1 [ACC 158] cells; assay: MTT cytotoxicity assay, KB-3-1; conditions: KB-3-1, MTT, tested 37 μg/mL–0.63 ng/mL, read-out: IC50
Protocol: (§3) Cytotoxic effects were evaluated on human endocervical adenocarcinoma KB-3-1 [ACC 158] cells and mouse fibroblasts L929 [ACC 2] upon treatment with Rub C, W, and Rut A and B within the concentration range of 37 μg/mL–0.63 ng/mL. The half-maximum inhibitory concentrations (IC50) were determined by standard MTT assays as reported previously (see the Supplementary Material for detailed information). The IC50 values of Rub A and Z have currently been reported. […]
(§4) KB-3-1 (ACC 158) cervix carcinoma as well as L929 (ACC 2) mouse fibroblasts were cultured under standard cell culture conditions (37 °C, 5% CO2, 95% humidified atmosphere). The cells were maintained in high glucose DMEM containing 10% fetal bovine serum and 100 U/mL penicillin and streptomycin (Gibco, Thermo Fisher Scientific, Waltham, USA). Cell lines were serially passaged after trypsinization, using 0.05% trypsin / 0.02% EDTA solution. The cultures were routinely monitored for potential contamination, and only mycoplasma free cultures were used. The test compounds were investigated for their anti-proliferative effect on cell lines, using the 3-(4,5-dimethylthiazol-2-yl)-2,5-diphenyltetrazolium bromide (MTT) based cell viability assay. Cells were seeded in 96 well microtiter plates (Sarstedt, Germany) with a cell density of 0.05 * 10^6 cells per mL and 100 μL per well and were incubated for 24 h. […]
(§5) Absorbances at 570 nm and 630 nm were measured with a plate reader (Tecan, Männedorf, canton of Zürich, Switzerland). Background absorbance (630 nm) was subtracted from the formazan signal (570 nm). The resulting absorbance is directly proportional to the amount of viable cells. The control was normalized to 100% viable cells, and the viability of cells treated with the test compounds was calculated accordingly. IC50 values were calculated based on a sigmoidal fit model using GraphPad Prism. Means and SD were calculated from at least four independent experiments. […]

[4] = system: mouse fibroblasts L929 [ACC 2]; assay: MTT cytotoxicity assay, L929; conditions: MTT, tested 37 μg/mL–0.63 ng/mL, read-out: IC50
Protocol: as §3, §4, §5

[5] = system: murine fibroblasts (L929) and human endocervical adenocarcinoma cells (KB-3-1); assay: MTT cytotoxicity, range stated over both cell lines; conditions: range over Rut A and Rut B and over L929 and KB-3-1
Protocol: as §3
KB-3-1 (ACC 158) cervix carcinoma as well as L929 (ACC 2) mouse fibroblasts were cultured under standard cell culture conditions (37 °C, 5% CO2, 95% humidified atmosphere). […] The cultures were routinely monitored for potential contamination, and only mycoplasma free cultures were used. […]
as §5

Compound | inhibition at 2 µg/mL [1] [%] | inhibition at 3.9 µg/mL [1] [%] | inhibition at 7.8 µg/mL [1] [%] | inhibition at 15.6 µg/mL [1] [%] | inhibition at 31.3 µg/mL [1] [%] | inhibition at 62.5 µg/mL [1] [%] | inhibition at 125 µg/mL [1] [%] | inhibition at 250 µg/mL [1] [%] | inhibitory effects against the biofilm formation of S. aureus [2] | inhibition at 2 µg/mL [2] [%] | inhibition at 3.9 µg/mL [2] [%] | inhibition at 7.8 µg/mL [2] [%] | inhibition at 15.6 µg/mL [2] [%] | inhibition at 31.3 µg/mL [2] [%] | inhibition at 62.5 µg/mL [2] [%] | inhibition at 125 µg/mL [2] [%] | inhibition at 250 µg/mL [2] [%] | IC50 [3] [nM] | IC50 [4] [nM] | IC50 [5]
CC(=O)OC/C=C/C1=CC2=C(CO1)C(=O)[C@@](C)(OC(=O)c1c(C)cc(O)cc1O)C(=O)/C2=C\C=C\C1=CC2=C(CO1)C(=O)[C@@](C)(O)[C@@H](OC(=O)c1c(C)cc(O)cc1O)C2 [Rut A, rutilin A] | < 20 | < 20 | < 20 | < 20 | < 20 | < 20 | < 20 | < 20 | moderate inhibitory effects | < 20 | < 20 | < 20 | 21 ± 2 | 51 ± 10 | 51 ± 10 | 55 ± 9 | 60 ± 6 | 1100 | 1200 | 1.1 µM to 2.2 µM and 0.9 µg/mL to 1.8 µg/mL
CC(=O)OC/C=C/C1=CC2=C(CO1)C(=O)[C@@](C)(OC(=O)c1c(C)cc(O)cc1O)C(=O)/C2=C\C=C\C1=CC2=C(CO1)C(=O)[C@@](C)(OC(=O)c1c(C)cc(O)cc1O)[C@@H](O)C2 [Rut B, rutilin B] | < 20 | < 20 | < 20 | < 20 | < 20 | < 20 | < 20 | < 20 | moderate inhibitory effects | 86 ± 2 | 88 ± 1 | 88 ± 1 | 87 ± 2 | 86 ± 2 | 86 ± 2 | 85 ± 2 | 84 ± 2 | 1500 | 2200 | 1.1 µM to 2.2 µM and 0.9 µg/mL to 1.8 µg/mL
